Values quoted from earlier work as cited in US11208380B2, “Process for the purification of caprolactam from a solution of crude caprolactam without organic solvent extraction” (AquafilSLO d.o.o., priority 2017, dated 2021).

SMILES	LD50, rat, oral administration [mg/kg]
c1ccccc1 [Benzene]	930
ClC=C(Cl)Cl [Trichloroethylene]	5400
